Results taken from patent US12233041B2, “Disulfonate stilbenes for use in the treatment of proliferative diseases” (UNIVERSITÉ DE NANTES, priority 2018, dated 2025).
Each block holds one molecule with its values, some of them ahead of it.

Legend:
[1] = tested on: DU145 prostate cancer cell line; experiment: Cytotoxicity, MTT assay; format: cell-based; conditions: DU-145 cells, 50 μM for 3 days
Method: (§1) Prostate cancer cells DU145 (carcinoma) and fibroblast cells were cultured in […] (RPMI 1640 medium) supplemented with 10% fetal bovine serum (FBS) and 1% penicillin/streptomycin, and were grown at 37° C. with 5% CO2.
(§2) Tested molecules were dissolved and stored in DMSO at 20 mM concentration.
(§3) DU145 and fibroblast cells were seeded at 5×10^3 cells/well in 100 μl of medium in standard 96-well plates. The plates were incubated 24 h at 37° C. at an atmosphere of 5% CO2. Molecule solutions diluted in DMSO were serially diluted by RPMI 1640 medium from 60 μM to 0.02 μM and were added in 100 μl RPMI in quadruplicate.
After 72 h of incubation, 20 μL of 5 mg mL-1 MTT was added to each well according to the manufacturer's instructions. After 2 h of incubation at 37° C., the medium was removed, and 200 μl DMSO was added to each well to dissolve formazan crystals. The absorbance at 540 nm of each well was then monitored using an EnSpire multimode plate reader. Absorbance of each well was expressed as percentage of the control (wells with untreated cells), and the 50% inhibitory concentration (IC50) was determined. […] All data were expressed as the mean values±standard deviation. The IC50 values were calculated by linear regression analysis of the concentration-log response curves using the software GraphPad InStat 3.0. […]

[2] = tested on: RAD51 foci in DU-145 cells; experiment: Rad51 foci quantification by immunofluorescence; format: cell-based; conditions: DU-145, cisplatin 30 μM for 1 hour, fixed after 18 h
Method: DU-145 cells were grown on coverslips (Life Technologies) at a density of 5×10^3 cells per well in medium (RPMI) supplemented with 10% fetal bovine serum (Gibco-Invitrogen). Cells were treated with Cisplatin at 30 μM for 1 hour in presence or in absence of RAD51 inhibitor B-2 at 20 μM, and then the medium was replaced with molecule-free medium. After 18 h, cells were washed once in PBS for 5 min and fixed with ethanol absolute for 25 min.
The fixed cells were incubated for 1 h in the PBS buffer containing 1:1000 diluted anti-RAD51 antibody at room temperature. After three 5-min washes in PBS, slides were incubated with PBS solution containing the secondary antibody conjugated with AlexaFluor 555 ([…]) for 45 min in dark room. […] The images were recorded with NIS Element software (Version 3.6, Nikon, Tokyo, Japan). The quantification of RAD51 foci was processed with a program derived from Fiji-ImageJ software (NIH, Bethesda, Maryland, USA). […]
The treatment with Cisplatin alone induces a high level of RAD51 foci, whereas this level is decreased when the treatment is associated with B-2 20 μM. After the quantification of the number of RAD51 foci per cell, the number of cells containing more than 20 RAD51 foci was determined.

[3] = tested on: DU-145 cell line; experiment: Clonogenicity test, sensitizing effect with an antineoplastic drug; format: cell-based; conditions: DU-145, cisplatin alone; read-out: IC50 (clonogenic survival, cisplatin)
Method: Clonogenicity tests are carried out against several model cell lines derived from cancer including prostate cancer (DU-145). Cells are exposed to an anti-cancer agent targeting DNA (cisplatin or camptothecin). Damaged cells are counted and seeded in the presence or in the absence of B-2 in triplicate culture plates. After about two weeks of incubation at 37° C. the number of clones formed is counted. Each cell capable of repairing its lesions will then form a clone. After counting, the percentage of survival will be calculated relative to the control condition for which it is considered that there is 100% survival.
The main interest of RAD51 protein inhibitors is the sensitization of chemo-resistant or radio-resistant cancerous cell lines. Clonogenicity evaluation was carried out on the DU-145 cell line treated with cisplatin treatment in the presence or in the absence of disulfonate stilbene B-2 (RAD51 protein inhibitor).
DU-145 cell line was treated with camptothecin in the presence or in the absence of disulfonate stilbene B-2 (RAD51 protein inhibitor) and the clonogenic cell survival was determined.

[4] = tested on: fibroblast cells; experiment: Cytotoxicity, MTT assay; format: cell-based; conditions: 50 μM for 3 days, FIG. 7
Method: as §1, §2, §3
After 72 h of incubation, 20 μL of 5 mg mL-1 MTT was added to each well according to the manufacturer's instructions. After 2 h of incubation at 37° C., the medium was removed, and 200 μl DMSO was added to each well to dissolve formazan crystals. The absorbance at 540 nm of each well was then monitored using an EnSpire multimode plate reader. Absorbance of each well was expressed as percentage of the control (wells with untreated cells), and the 50% inhibitory concentration (IC50) was determined. […] All data were expressed as the mean values±standard deviation. The IC50 values were calculated by linear regression analysis of the concentration-log response curves using the software GraphPad InStat 3.0.

[5] = biological target: T1, HsRad51 (Homo sapiens, UniProt Q06609); experiment: RAD51 oligomerization by SDS-PAGE gel after crosslink; format: biochemical; conditions: 2.5 μM HsRad51, disuccinimidyl suberate crosslink, SDS-PAGE/Western blot; FIG. 1
T1 sequence (Q06609 1-339): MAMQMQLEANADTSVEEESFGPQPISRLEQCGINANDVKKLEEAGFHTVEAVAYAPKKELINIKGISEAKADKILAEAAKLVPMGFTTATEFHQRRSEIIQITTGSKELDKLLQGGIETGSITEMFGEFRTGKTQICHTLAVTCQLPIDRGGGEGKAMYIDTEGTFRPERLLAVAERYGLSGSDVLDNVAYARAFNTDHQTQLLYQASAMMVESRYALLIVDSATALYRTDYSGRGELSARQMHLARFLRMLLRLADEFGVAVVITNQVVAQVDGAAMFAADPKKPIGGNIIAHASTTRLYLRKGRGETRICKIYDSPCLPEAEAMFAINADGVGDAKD
Method: The reaction was performed at room temperature. 2.5 μm HsRad51 was incubated with the indicated concentrations of tested compounds for 10 min in a buffer containing 20 mm sodium phosphate, 50 mm NaCl, 1 mm MgCl 2, and 1 mm ATP. The cross-linking reactions were initiated by the addition of disuccinimidyl suberate (50 μm) and allowed to proceed for 30 min. Reactions were quenched by the addition of Tris-HCl (pH 7.5, final concentration: 50 mm) followed by subsequent incubations for 15 min. The products were then separated by 12% SDS polyacrylamide gel electrophoresis and detected by Western blot with mouse monoclonal anti-Rad51 antibody (NeoMarkers) and anti-mouse Alexa-Fluor 700-conjugated secondary antibody (Molecular Probes, Eugene, OR). The cross-linked dimer was quantified by an Odyssey Infrared Imaging System scanner (Li-Cor Biosciences) (Martinez, S. F. et al., “Targeting human Rad51 by specific DNA aptamers induces inhibition of homologous recombination”, Biochimie, December 2010, Vol. 92, No. 12, pp. 1832-1838).
The SDS-PAGE electrophoresis after crosslink maintains and immobilizes the RAD51 protein complexes and thus allows visualization of the degree of oligomerization (polymer formation) of the RAD51 protein. The effect of RAD51 protein inhibitors B-1, B-2, B-3, DIDS and X-4 on this key step of RAD51 protein recombinase activity has thus been evaluated. The results are presented on FIG. 1.

[6] = biological target: T2, Rad51 (Homo sapiens, UniProt Q06609); experiment: DNA invasion by D-loop assay (strand exchange); format: biochemical; conditions: 0.5 μM Rad51, 1 μM 100-ssDNA, 37° C.; read-out: IC50 (RAD51 protein inhibition, D-loop formation)
T2 sequence (Q06609 1-339): T1 sequence (Q06609 1-339)
Method: Labeled 100-ssDNA** (1 μM) was incubated with 0.5 μM Rad51 in presence or absence of the indicated amounts of the corresponding molecule in 10 μL of standard reaction buffer containing 20 mM Tris-HCl (pH 8), 1 mM ATP, 1 mM DTT, 1 mM CaCl2) at 37° C. for 20 min. The reaction was initiated by adding supercoiled pPB4.3 DNA (200 μM in bp). After incubation of 30 min at 37° C., the reactions were stopped and deproteinized by a stop solution (10 mM Tris-HCl pH 8, 10 mM MgCl2, 1% SDS, and 1 mg/mL proteinase K. The reaction mixtures were further incubated for 15 min at 37° C. After adding 5-fold loading dye (0.05% bromophenol blue, 8% glycerol, 1 mM EDTA), the reaction products were separated by electrophoresis on 1% agarose gel. The electrophoresis was carried out in 0.5×TAE buffer (20 mM Tris, 10 mM acetic acid and 1 mM EDTA) at 100 V for 2 h. The labeled products (100-ssDNA** and D-loop) were visualized and quantified by the detection of the IRD-700 dye with the 700 nm infrared fluorescent detection channel of an Odyssey Infrared Imager (LI-COR) (Normand, A. et al., Biochemical Pharmacology, October 2014, Vol. 91, No. 3, pp. 293-300).
The “D-loop” in vitro test allows the quantification of the formation of the strand exchange structure (D-loop) and thus the determination of the inhibitory power of a molecule during the strand exchange step of the recombinase mechanism. IC50 measuring the RAD51 protein inhibition in presence of compounds A-1 to A-5, […] and DIDS are then calculated.

SMILES: O=c1c2ccccc2nc(/C=C/c2cccnc2)n1Cc1ccccc1 [BPQ, (E)-3-benzyl-2-(2-(pyridin-3-yl)vinyl)quinazolin-4(3H)-one]
mortality of cells [1]: 90%
cytotoxic effect ([1]; FIG. 6): high cytotoxicity

SMILES: N.N.[Cl][Pt][Cl] [Cisplatin, reference compound]
level of RAD51 foci [2]: high level
IC50 [3]: 33 µM

oligomerization state of RAD51 protein [5]: reduction
IC50 [6]: 1 µM
SMILES: O=S(=O)(O)c1cc(N=C=S)ccc1C=Cc1ccc(N=C=S)cc1S(=O)(=O)O [DIDS, 4,4′-Diisothiocyano-2,2′-stilbene disulfonic acid, reference compound]
cytotoxic effect [4]: has a cytotoxic effect
